According to patent publication US8911953B2, “TDF-related compounds and analogs thereof, analogs and bioactive fragments” (Thrasos Innovation, Inc., priority 2005, dated 2014):
Positions of bridges follow the written chain, without caps; N, C: chain ends. No end group written: not given here.

B1: BMP-7: recombinant human mature BMP-7 (BMP-7 or TDF-1), positive control therapy (protein)
chain: STGSKQRSQNRSKTPKNQEALRMANVAENSSSDQRQACKKHELYVSFRDLGWQDWIIAPEGYAAYYCEGECAFPLNSYMNATNHAIVQTLVHFINPETVPKPCCAPTQLNAISVLYFDDSSNVILKKYRNMVVRACGCH

Key:
[1] = test system: rats with coronary artery ligation; experiment: Left anterior descending (LAD) coronary occlusion model of myocardial injury; assay type: in vivo, rat; conditions: for reduction in AN/AR ratio as compared to PBS-treated animals: Day 7
Description: Schematic of the Left Anterior Descending […] (LAD) occlusion model of myocardial injury. The image represents a cross section through the heart of rats showing that treatment with TDFRP or BMP prevents ischemic injury. Left anterior descending arteries were occluded for 20 minutes to induce ischemia. Upon removal of the ligature, blood flow into the heart causes reperfusion injury and apoptosis. After seven days, the heart was stained with Evan's blue dye to differentiate the perfused, unaffected area from the occluded region (area at risk). Four doses of TDFRP (SEQ ID NO:45) were used in the treated animals (pre-occlusion, and 24, 48 and 72 hrs post-occlusion). A) left anterior descending coronary artery ligated to create ischemia, B) infarct areas (IA), C) the unaffected, perfused region. Dyed blue at sacrifice, D) ventricular lumen, E) approximate regional boundary, F) the affected (ischemic) region (AR). Where reperfusion injury leads to apoptosis
The efficacy of TDFRP compound (SEQ ID NO:45) in ameliorating the effects of myocardial ischemia was investigated in the rat after ligation of the coronary artery. […] unmanipulated rats, sorted into two large groups by initial body weight (>300 g pre-surgery) were evaluated. Fourteen rats underwent surgery on week, 12 rats underwent surgery on week 2 and rats were sorted into 3 treatment groups: Group 1, PBS; Group 2, positive control TDF-1; Group 3, test article TDFRP (SEQ ID NO:45) (see Table 13).
Three days prior to surgery, a serum sample was collected from the tail vein of each rat (pre-bleed). On the day of surgery, each rat was administered compound intravenously 2 hr prior to surgery. Surgery was performed sequentially after intubation and ventilation with 0.5% isofluorane anesthetic. Lead II ECG was monitored throughout the surgery. A thoracotomy was performed and the main left coronary artery was occluded for 20 min using a snare technique (FIG. 19). Successful occlusion of the artery was confirmed by ST elevation in lead II ECG within the first 5 minutes of ligation, and by frequent ventricular arrhythmia after 10 minutes of ligation. The snare was released to restore blood flow. The original suture loop was left in place for subsequent re-occlusion on Day 7. After initiation of reperfusion, the chest cavity was closed with 2 layers of suture. Rats were weaned from the ventilator and observed until fully conscious and mobile. Antibiotic (QD) and analgesic (Q8D) were provided. Additional serum samples were collected 6, 24, 72 and 120 hours post occlusion. Additional compound, positive control or vehicle treatments were delivered by intravenous injection in the tail vein at 24, 72 and 120 hours post occlusion.
On Day 7, each rat was anesthetized (ketamine:xyline), the chest cavity re-opened and a terminal blood sample (1 ml) was withdrawn from the abdominal vein. Gross pathology (i.e. inflammation) was noted and graded on a 4 point inflammation scale: 0=no inflammation, 1=slight, 2=moderate, 3=severe and 4=complete pericarditis. The left coronary artery was then re-occluded using the existing stitch and a concentrated solution of Evans Blue dye in saline (20 mg/ml; 0.5 ml/rat) was injected into the heart apex to stain the non-ischemic cardiac tissue blue. The heart was then arrested by injection of a saturated solution of potassium chloride into the right ventricle. The heart was then excised, wrapped in cellophane and stored at −20° C. for 1.5 hour. The cold heart was cut into 10 cross-sectional slices (2 mm/slice) and each section was numbered and incubated separately in triphenyltetrazolium chloride (1% TTC in PBS) for 10 minutes at 37° C. prior to fixing in 4% formaldehyde. Subsequently, each slice was photographed. For each slice, the “area at risk (AR)” and the “area occupied by necrosis (AN)” were measured by morphometry. The ratio of AN to AR is a measure of the degree of damage resulting from the occlusion (FIG. 20).

UUO mice = experiment: Unilateral ureteral obstruction (UUO) mouse model of chronic renal injury; assay type: in vivo
Description: Schematic of the unilateral urinary obstruction (UUO) mouse model of chronic renal injury. One ureter was ligated on Day 0 (D0) and mice received one of the following treatments: vehicle (control), BMP-7 by intraperitoneal (ip) administration (positive control) or TDFRP by ip, intravenous (iv) or oral (po) administration. Mice were sacrificed on Day 5 (D5) or Day 7 (D7) and the kidneys were evaluated for disease pathology.
Unilateral ureteral obstruction (UUO) is a model resembling human obstructive nephropathy, which represents an inducible chronic model of interstitial fibrosis. UUO is induced by ligation of one ureter, leaving the contra-lateral kidney to serve as a control. As a result of the procedure, mice develop renal tubulointerstitial inflammation, tubulointerstitial fibrosis and tubular atrophy, without hypertension, proteinuria, lipid dysregulation and little glomerular damage contributing to the disease state (Ito et al (2004). J. Urol. February; 171(2 Pt 1): 926-30.; Bhangdia et al. (2003) J. Urol. November; 170(5): 2057-62.; Rawashdeh et al. (2003) Invest Radiol. 2003 March; 38(3): 153-8.; Hruska et al (2000) Am J Physiol Renal Physiol. 2000 July; 79(1): F130-43.). Furthermore, renal fibrosis is associated with alteration of epithelial and fibroblastic cells to myofibroerblasts, along with increased expression of TGF-beta and progressive loss of renal function.

Molecule | reduction in AN/AR ratio as compared to PBS-treated animals ([1]; 10 mg/kg i.v.) [%] | reduction in inflammation score as compared to PBS-treated animals ([1]; 10 mg/kg i.v., Day 7, 4 point inflammation scale) [%] | inflammation and cytotoxic effects toward cardiomyocytes following myocardial infarction ([1]; myocardial ischemia and reperfusion injury) | degree of cardiac inflammation ([1]; rat, in vivo) | necrotic area to area at risk ratio (IA/AR) ([1]; rat, in vivo) | severity of tubular damage (percent of renal tubular degradation) (UUO mice; 5-day model, administered orally, ip or iv) | progression of tubulointerstitial fibrosis disease (UUO mice; 5-day model, oral 5 mg/kg/24 hours or iv 50 mg/kg/24 hours) | progression of tubulointerstitial fibrosis disease (UUO mice; 7-day model, oral or iv 5 mg/kg/24 hours) | reduction in AN/AR ratio as compared to PBS-treated animals ([1]; 160 μg/kg i.v.) [%] | chronic renal injury (UUO mice; 5-day model, ip 300 ug/kg/48 hours) | UUO chronic renal injury (UUO mice; 7-day model, ip 300 ug/kg/48 hours)
CYFDDSSNVLCKKYRS (disulfide 1-11 (inferred); not fully specified) [SEQ ID NO:45] | 84 | 78 | ameliorate inflammation and cytotoxic effects | reduces | reduces | attenuated the severity of tubular damage | attenuated progression | significantly attenuated | – | – | –
B1 | – | – | – | – | – | – | – | – | 7 | Reversal | Reversal
